Measured values as given in patent US9504672B2, “Compositions and methods for treating or preventing pneumovirus infection and associated diseases” (MicroDose Therapeutx, Inc., priority 2012, dated 2016).
Where two headings read alike, the source gives them in different places.

What was measured:
[1] = Specific surface area (BET); format: physicochemical
[2] = Competitive slurry stability study between P-2 and P-3 (PXRD quantitative phase analysis); format: physicochemical; details: 50/50 acetonitrile/water, 25° C., over 10 days
[3] = 40° C./75% RH, 4 weeks
[4] = Stability of lactose formulation at 40° C./75% RH, sealed glass bottles, 39 weeks; format: physicochemical; details: lactose formulation 6.3% w/w
Method: Formulation of the P-3 dihydrate form of the API with lactose (6.3% w/w) was placed on stability 40° C./75% RH in sealed glass bottles for 39 weeks. After samples removal, the lactose was removed by dissolution in purified water. The reference formulation was also subjected to the same lactose extraction procedure to eliminate the possibility for form conversion in water.

[5] = Slurry of equal mixture of six phases in 75/25 acetone-water (PXRD); format: physicochemical; details: 25° C., 12 days, listed as P-3
Method: An equal powder mixture of six known phases (P-2, P-3, P-4, P-6, P-7 and P-8), 50 mg each were stirred in 75/25 acetone-water solvent (50 mL) at 25° C. over 12 days.

[6] = Storage stability of micronized API in amber glass bottles (DSC, PXRD); format: physicochemical; details: 25° C./60% RH and 40° C./75% RH, through 12 months
Method: The micronized, P-3 dihydrate material was stored in 1.85 mL amber bottles with Teflon lined caps. The 25° C./60% RH and 40° C./75% RH simulated storage and worst-case storage conditions correspondingly.

[7] = human, in vivo
Method: (§2) Subjects were enrolled in cohorts of 12 subjects. […] The study consisted of 3 visits: Visit 1 (Screening), Visit 2 (Dosing), Visit 3 (Follow up) and subjects remained at the study site for pharmacokinetic (PK) sampling, spirometry, and safety assessments. […] Day 1 was the first day of dosing and Day 10 was the final day of dosing, following which subjects remained at the study site for 24 hours following the last dose for PK sampling and spirometry. Visit 3 was a follow-up visit, 7 to 10 days after the last dose. Cohorts were dosed as follows:
(§3) The first doses for twice daily (BID) and three times daily (TID) were administered in the morning, starting at approximately 0700 hours on each day of dosing. BID doses were administered at 12 hour intervals and TID doses were administered at 6 hour intervals each dose day.
(§4) Pharmacokinetic endpoints (Cmax, Tmax, AUC, T1/2) and dose proportionality was assessed based on a limited number of plasma samples following the first dose on Day 1 and last dose on Day 10
(§5) Pharmacokinetic variables (Cmax, Tmax, AUC, T1/2) were evaluated based on blood samples drawn following first dose (Days 1-2) and last dose (Days 10-11).

[8] = Critical water activity by DVS sorption/desorption isotherms; format: physicochemical; details: 20° C.
Text: The characteristic gravimetric loss of water is between 1-4.5% w/w.
The characteristic gravimetric loss of water for P-3 dihydrate is between 5.5-8.5% w/w. The profound difference of the DVS curves between the P-2 and P-3 forms can be utilized as a secondary technique for quantitative phase analysis of these forms.

[9] = Bulk powder density and flow indices (volumetric); format: physicochemical
[10] = human, in vivo; remark: listed apart in the source
Method: The study consisted of 3 visits: Visit 1 (Screening), Visit 2 (Dosing) and Visit 3 (Follow up); subjects furloughed from the clinic between Visits 2 and 3.
Both active and matched placebo were administered via face mask inhalation from a proprietary delivery system (MicroDose inhaler).
Single doses were administered in the morning. TID doses will be administered at 6 hour intervals, with the 1st of the 3 doses administered in the morning.
Pharmacokinetic variables (Cmax, Tmax, AUC, T1/2) were evaluated based on blood samples drawn at Visit 2.

[11] = human, in vivo; remark: listed apart in the source
Text: (§1) In summary, the MicroDose Inhaler operation comprises the drug powder contained in a protective blister until delivery. The blister is pierced externally and then placed in contact with a piezoelectric vibrator within the MicroDose Inhaler. When the patient inhales, an airflow sensor automatically turns on the piezo which provides energy to deaggregate the particles of powder and aerosolizes them into the inhalation airstream, providing synchronized delivery. The MicroDose Inhaler was triggered by pressure drop and programmed to produce a series of brief aerosol bursts of predetermined duration within the range of 0.1 to 2.0 seconds, preferably 0.1 seconds, early during each inhalation cycle and for 16 consecutive breaths. The studies were conducted as follows:
Study 3: A Double-Blind, Randomized, 3 Period Crossover, Single Ascending Dose Study to Assess the Safety and Tolerability of Inhaled MDT-637 P3 in Subjects with Intermittent or Mild-to-Moderate Persistent Asthma (Asthma Trial)
The primary objective of Study 3 was to assess the safety and tolerability of MDT-637 P3 when inhaled by subjects with Intermittent, or Mild-to-Moderate Persistent, Asthma. A secondary objective of Study 3 was to determine the rate and extent of systemic absorption of MDT-637 and trough nasal wash MDT-637 drug concentrations following dry powder inhalation dosing.
Each subject was dosed on 3 separate days during the study. Each subject received an initial dose of placebo (Period 1), followed by random allocation at Period 2 to a single dose of nasally inhaled MDT-637 P3 or double blind placebo. After an observation and furlough period, subjects returned for Period 3 to receive three doses of study drug (MDT-637 P3 or placebo) over a single day as listed below. The study consisted of 5 visits: Visit 1 (Screening), Visits 2, 3 and 4 (Dosing), and Visit 5 (Follow up); subjects were furloughed from the clinic for 6 up to 14 days between Visits 3 and 4 and 7-8 days between Visit 4 and 5. Subjects who met all of the inclusion criteria and none of the exclusion criteria (Table 19, FIG. 29) at Visit 1 were eligible to return for Visit 2 within 42 days of screening. Subjects were admitted to the study center twice, once for Visit 2 and again for Visit 4. Visit 5, was a safety follow up (outpatient) visit.
The doses of MDT-637 P3 were determined based on previous clinical experience in Study 1. Both placebo and active were administered as a dry powder for nasal inhalation via a face mask using a MicroDose Inhaler device. At Visit 2, all 10 patients were dosed with placebo Once Daily. At Visit 3, subjects were randomly allocated so that 8 subjects were dosed with MDT-637 P3 Once Daily 66 mcg and 2 subjects received double blind placebo. At Visit 4, subjects were again randomly allocated so that 8 subjects were dosed with MDT-637 TID 132 mcg and 2 subjects received double blind placebo.
Pharmacokinetic variables (Cmax, Tmax, AUC, T1/2) were evaluated based on blood samples drawn at Visit 4.

[12] = Particle size of micronized material (Sympatec HELOS & RODOS); format: physicochemical
[13] = Crystal (skeletal) density by nitrogen pycnometry; format: physicochemical
[14] = in vivo
Text: The purpose of the following studies was to assess the safety, tolerability, local and systemic pharmacokinetics of single and multiple doses of MDT-637 P3 in healthy volunteers and asthmatics.
as §1, with “breaths.” for “breaths. The studies were conducted as follows:”

[15] = for Total Imp/Deg: listed as P224-163-1; for number of impurity peaks: listed as P-3
Method: Forced degradation experiments consisted of placing solid samples of P-2 hydrate and P-3 dihydrate materials in sealed glass bottles at 120° C. for 7 days.

clinical = details: human, in vivo, 132 ug
Method: as §2, §3, §4, §5

## Cc1nnnn1/N=C/c1ccc(O)c(C(c2ccc(O)cc2)c2cc(/C=N/n3nnnc3C)ccc2O)c1 [P-3 dihydrate, phenol, 2,2′-[(4-hydroxyphenyl)methylene]bis[4-[[(5-methyl-1H-tetrazol-1-yl)imino]methyl]]]
[1]
  Specific surface area: 11.0 m^2/g
[2]
  form conversion in competitive slurry: converts to P-2
[3]; open dish, listed as P-3
  Assay: 96.7%
  Rel Subs: 0.67%
  Water: 5.9%
[3]; open wide glass bottles
  change of form / solid-state stability (DSC and PXRD): no change of form
  chemical stability: Acceptable chemical stability
[4]
  change of crystal form in formulation with lactose: stable against solid-state conversion
[5]
  form conversion / stability in six-phase slurry: convert to P-2 hydrate
[6]
  change in form (DSC and PXRD): no change in form was observed
[7]
  CVs of PK exposure: 15-30%
  clinically significant changes in labs, vital signs, ECGs, physical exams: No clinically significant changes
[7]; 10 days
  TEAEs considered related to study treatment: 5 TEAEs
  subjects reporting TEAEs: 13 subjects
  subjects reporting no TEAEs: 25 subjects
  total TEAEs overall: 20 TEAEs
[8]; 1% RH steps, first of two transition points
  transition point (monohydrate): approximately 3 % RH
[8]; 1% RH steps, second of two transition points
  transition point (dihydrate): ~13 % RH
[8]
  Characteristic relative humidity of dehydration (20° C.): 3-17%
[9]
  Carr index: 27.5%
  Hausner ratio: 1.38
  Poured bulk powder density: 0.22 g/mL
  Tapped bulk powder density: 0.30 g/mL
[10]
  changes in pulmonary function / pulmonary AEs: No significant changes in pulmonary function or reports of pulmonary AEs
  clinically significant changes in labs, vital signs, ECGs, physical exams: No clinically significant changes
  treatment emergent adverse event considered possibly related by PI: Mild dizziness
[10]; 24 h
  nasal wash levels: > MDT-637 P3's IC50 for RSV
[11]
  clinically significant changes in labs, vital signs, ECGs, physical exams: No clinically significant changes
  clinically significant changes in pulmonary function / pulmonary AEs: No clinically significant changes in pulmonary function or reports of pulmonary AEs
  pharmacokinetics, asthmatic vs healthy population: comparable between the healthy and asthmatic population
[11]; 3 separate dosing days
  subjects reporting adverse events: 2/10
  subjects reporting no adverse events: 8/10
[12]
  Characteristic medium volume particle size (micronized): 1.5 μm
[13]
  Crystal (skeletal) density: 1.61 g/mL
[14]
  clinically significant changes in ECG, laboratory values, vital signs or physical exam: no clinically significant changes
  pulmonary adverse events or changes in pulmonary function: no pulmonary adverse events or changes in pulmonary function were observed
  serious adverse events: no serious adverse events were observed
  systemic exposure: highly consistent and low systemic exposure
[15]; 120C/7D
  Grand Total: 99.8 Area %
  Total Imp/Deg: 6.49 Area %
[15]; 7 days
  Impurity/Degradation Product A: 0.12 Area %
  Impurity/Degradation Product B: 3.60 Area %
  Impurity/Degradation Product C: 0.17 Area %
  Impurity/Degradation Product D: 0.48 Area %
  Impurity/Degradation Product E: 0.28 Area %
  Impurity/Degradation Product F: 0.08 Area %
  Impurity/Degradation Product G: 0.05 Area %
  Impurity/Degradation Product H: 0.43 Area %
  Impurity/Degradation Product I: 0.17 Area %
  Impurity/Degradation Product K: 0.13 Area %
  Impurity/Degradation Product L: 0.06 Area %
  Impurity/Degradation Product M: 0.09 Area %
  Impurity/Degradation Product N: 0.07 Area %
  Impurity/Degradation Product O: 0.37 Area %
  Impurity/Degradation Product P: 0.36 Area %
  Impurity/Degradation Product Q: 0.05 Area %
[15]; CTRL
  Grand Total: 99.9 Area %
  Total Imp/Deg: 1.16 Area %
[15]; control
  number of impurity peaks: 6 peaks
[15]; stressed sample, 120° C. for 7 days
  number of impurity peaks: 16 peaks
clinical
  AUC(0-t): 1.16 ng·h/mL
